For one series, the system named is δ-opioid receptor. As to conditions: cited from earlier work.
The conditions of series [1]: rhesus monkeys; i.m. injection; cited from earlier work.
The next series relates to μ-opioid receptor. As to conditions: cited from earlier work.
The test system of series [2] is apomorphine-induced overshoot in movement. As to conditions: reserpine-treated akinesia rats; cited from earlier work.
The format of series [3] is in vivo, rat.
The next series relates to allodynia. As to conditions: rhesus monkeys; i.m.; cited from earlier work.
Another series deals with thermal nociception. As to conditions: rhesus monkeys; i.m.; cited from earlier work.

Non-standard residues stand in square brackets, D forms with d. Residues, ends and D or L forms follow the SMILES beside them. *: point of attachment. X1 = OC[C@H]1O[C@@H](O[C@H]2[C@H](O)[C@@H](O)[C@H](*)O[C@@H]2CO)[C@H](O)[C@@H](O)[C@H]1O

`CC(C)C[C@H](NC(=O)[C@H](Cc1ccccc1)NC(=O)CNC(=O)[C@H](NC(=O)[C@@H](N)Cc1ccc(O)cc1)[C@H](C)O)C(=O)N[C@@H](CO[C@@H]1O[C@H](CO)[C@@H](O[C@@H]2O[C@H](CO)[C@H](O)[C@H](O)[C@H]2O)[C@H](O)[C@H]1O)C(N)=O` [MMP-2200, Tyr-D-Thr-Gly-Phe-Leu-Ser(β-O-Glc)-CONH2] (H-Y[dT]GFLS(X1)-NH2; N-terminus assumed): in the series with δ-opioid receptor, the “affinity for δ-opioid receptor” value is listed as “nanomolar”. In series [1], the CNS distribution entry is listed as “very limited”. The “affinity for μ-opioid receptor” value with μ-opioid receptor is “nanomolar”. In addition, in series [2], the “apomorphine-induced overshoot in movement” value is on record as “reversed”. The “MMP-2200 concentration in DLS reached within 10 minutes” value in series [3] (rat, systemic administration (i.p.), highlights) was “nM range”. Further, the “effect of MMP-2200 injection on endogenous leu-ENK level in DLS” value in series [3] (rats, MMP-2200 10 mg/kg i.p., 80 min, repeated measures ANOVA p = 0.8, n = 5) is listed as “unchanged”. In the series on allodynia, the anti-allodynic effects result is reported as “comparable to morphine”. Further, the “effect in tail flick model of thermal nociception” value in the series on thermal nociception was “not very effective”.

The values above are taken from PMC3539793 (Neuroscience letters, 2012).
